{"source": "patent US20100179172A1", "about": "“N-PHENYL-METHANAMINE DERIVATIVE AND PESTICIDE CONTAINING IT” (priority 2007, published 2010)", "test_system": "Larval ticks (Haemaphysalis longicornis)", "assay": "Test on controlling effects against Haemaphysalis longicornis (Petri dish contact, knock down time, Test Example 7)", "format": "in vivo", "settings": "1 ml in Petri dish, 25° C.", "description": "On an inner surface of a Petri dish having a diameter of 9 cm, 1 ml of a solution of the compound No. 40 in acetone (concentration: 10 μg/ml, 1 μg/ml or 0.1 μg/ml) was dropped by a micro pipette. After the inner surface of the Petri dish was dried, 100 Larval ticks (Haemaphysalis longicornis) were put, and the Petri dish was covered with a polyethylene sheet and sealed by a rubber band. Thereafter, the Petri dish was left to stand still at a constant temperature of 25° C. under a relative humidity of 100% under a constant dark condition except for the time of observation. Observation was carried out every time upon expiration of a certain time (i.e. after 5, 10, 20, 30, 60, 120, 180 and 240 minutes), and the number of ticks knocked down after contact with the compound was counted. As a control group, Larval ticks were put in a Petri dish having 1 ml of acetone dropwise added and observed in the same manner. The above operation was repeated twice.\nFrom the number of knocked down ticks in each observation, the survival rate was obtained, and a corrected mortality was calculated by the following Abbott correction formula. Then, probit-time linear line was drawn, and the median knock down time (KT50 value) was obtained.\nCorrected mortality (%)=[(Survival rate in control group−Survival rate in treated group)/Survival rate in control group]×100"}
{"compound": "Cc1ncccc1CN(Cc1ccccn1)c1cc(C(F)(F)F)c(Br)c(C(F)(F)F)c1", "note": "[compound 40]", "values": [{"measurement": "KT50 value, Average", "setting": "0.1 μg/ml", "result": 38, "unit": "min"}, {"measurement": "KT50 value, First time", "setting": "0.1 μg/ml", "result": 40, "unit": "min"}, {"measurement": "KT50 value, Second time", "setting": "0.1 μg/ml", "result": 35, "unit": "min"}, {"measurement": "KT50 value, Average", "setting": "1 μg/ml", "result": 50, "unit": "min"}, {"measurement": "KT50 value, First time", "setting": "1 μg/ml", "result": 50, "unit": "min"}, {"measurement": "KT50 value, Second time", "setting": "1 μg/ml", "result": 50, "unit": "min"}, {"measurement": "KT50 value, Average", "setting": "10 μg/ml", "result": 40, "unit": "min"}, {"measurement": "KT50 value, First time", "setting": "10 μg/ml", "result": 40, "unit": "min"}, {"measurement": "KT50 value, Second time", "setting": "10 μg/ml", "result": 40, "unit": "min"}]}
